From patent US20240408081A1, “NOVEL SYNERGISTIC COMBINATIONS AND METHODS OF USE THEREOF FOR TREATING CANCERS” (UNIVERSITE DE BORDEAUX, priority 2021, published 2024) come the findings set out here.

Data set [1] deals with NEM157i, SU-DIPG-IVi and NEM163i DMG cells. Put plainly: Proliferation / cell viability assay (Sulforhodamine B) in DMG cell lines. Format: cell-based, human. As for the experimental part: Cell growth was measured with the In vitro Toxicology Assay kit (Sulforhodamine B, Sigma Aldrich, Saint Quentin Fallavier, France) according to manufacturer's instructions. Cells were plated at a density of 2000 cells per well in 96-well plates in triplicates. Absorbance was measured at 565 nm using the CLARIOstar multiplate reader (BMG Labtech, Champigny-sur-Marne, France) at indicated time points.

For data set [2], the system named is NEM157i and SU-DIPG-IVi DMG cells. Put plainly: Apoptosis assay (Annexin V-PE / 7-AAD flow cytometry) in DMG cells. It is filed as cell-based, human. As to conditions: 5 days of treatment. The text has this: After exposure to drugs at indicated concentrations and times, cells were labeled with Annexin V-PE (BD Biosciences, Le Pont de Claix, France) and 7-AminoActinomycin D (7-AAD) (BD Bioscience) and analyzed using Flow Cytometry as described.
Background: Flow cytometry measures light scatter and fluorescence of single cells or particles in a stream.

A further data set relates to H3K27me3 trimethylation. The data set is described as follows: Western blot of H3K27me3 in DMG cells. Format: cell-based, human. As for the experimental part: Histone extraction was performed according to manufacturer's instructions (Histone Extraction Kit-ab113476, Abcam, Paris, France).
Cell lysates were prepared by scraping cells using RIPA buffer (Sigma Aldrich) plus proteinase inhibitors (Sigma Aldrich) and centrifuged at 13000 g for 15 min at 4° C. Protein concentrations were measured using Pierce™ BCATM Protein Assays (ThermoFisher) and equal amounts of cell extracts were loaded for western blot analysis in 4-15% precasted polyacrylamide gel (Bio-Rad). Proteins were blotted on a nitrocellulose membrane (Transblot® Turbo midi-size, Bio Rad), blocked with the Odyssey blocking buffer (LI-COR Biosciences, ScienceTec, Les Ulis, France) or with BSA diluted in Tris-buffered saline with 0.1% Tween 20 (TBST) and probed with primary antibodies overnight at 4° C. […] Quantification was performed using ImageJ (National Institutes of Health, Bethesda, Maryland, USA).
Background: In western blotting, separated proteins are transferred to a membrane and probed.

Data set [3] has as its system DMG cell lines including primary BXdmg1 cells. Put plainly: DMG spheroid formation assay. It is filed as cell-based, human. As to conditions: 24 hours; GSK-126 20 μM for NEM157i and 15 μM for the others. As for the experimental part: For spheroid formation assays, 10^4 cells were used per well in a 96-well plate. Volume of methylcellulose/medium/cells and inhibitors (10, 15 or 20 μM) mixture per well was 100 μL with a final concentration of methylcellulose at 0.5%. After rapid and gentle homogenization, the mixture was placed on a round-bottom cell culture microplate (U-shaped) treated to limit cell adhesion. After, spheroids were incubated in an incubator at 37° C. and 5% CO2 for 24 hours. Photos and films of spheroids were taken by an InCellis cell imager (Bertin instruments, Montigny-le-bretonneux, France).

The subject of data set [4] is Huh6 cells. The data set is described as follows: Cell viability assay (CellTiter 96 AQueous One / MTS) in Huh6. Format: cell-based, human. As for the experimental part:
For 2D culture, a total of 2,000 cells/well for Huh6 and 3,000 cells/well for HepG2 were seeded in 96-well microtiter plates. Cell growth was measured at 24 h, 48h, 72h or 96h after genetic manipulation and at 48h or 72h after drug treatment using the in vitro MTS assay Kit or Sulforhodamine B (SRB, Absorbance at 565 nm) assay (Sigma) following manufacturer's instructions. For 3D culture, spheroids were formed as described above and microplates were incubated in an IncuCyte® S3 live cell analysis system and scanned every 8 hours. For genetic manipulation, the lentiviral transductions or the gene depletions were done before the plating. For drug treatments, depending on the experiment and the drug, spheroids were treated at day 4 or 5 for 48h or 72h. Cell viability assay in spheroids was done using 1 μM calcein AM (BioLegend) and 2 μM ethidium homodimer 1 (Sigma) for 30 minutes at 37° C. Spheroids were imaged using an IncuCyte® S3 live cell analysis system. For all cell viability assays, drugs were used at half maximal inhibitory concentration (IC50).

A further data set has as its system xenopus embryos. Put plainly: Toxicological assay in Xenopus embryos. It is filed as in vivo. As to conditions: treated from gastrula stage.
A further data set concerns Huh6 and HepG2 cells. The data set is described as follows: Clonogenicity assay. It is filed as cell-based, human. As to conditions: GSK-126 3 and 4 μM for Huh6 and HepG2; ATR 8 μM; SIM 4 μM; 10 days. On the procedure:
Huh6 and HepG2 cells were seeded at 500 and 1000 cells/well respectively in 12-well plates. After attachment, cells were treated with drugs.
Following incubation at 37° C. for 10 days, the cells were fixed with 4% PFA and stained with 0.05% crystal violet. Reading under the Fusion FX (Vilber Lourmat).

Data set [5] deals with Huh6 cells. Put plainly: Huh6 tumor xenografts in NSG mice. Format: in vivo, NOD/LtSz-scid IL2R gamma null (NSG) mice. As to conditions: intraperitoneal; GSK-126 50 mg/kg, ATR 20 mg/kg 3-times a week; cisplatin 1 mg/kg twice a week. As for the experimental part:
NOD/LtSz-scid IL2R gamma null (NSG) mice were bred in standard conditions compliant with regulatory bodies (French government). Sterilized food and water were accessible ad libitum. One million of Huh6 cells in 50% of Matrigel were subcutaneously injected in a total volume of 100 μl in the right flank of 8- to 9-week-old female mice (26-32 g; APAFIS #32917-2021121316283534 v2, Agreement #B33063916, Ministère de l'Enseignement Supérieur, de la Recherche et de l'Innovation).
Tumor growth was monitored by caliper measurement until tumors reached an average volume of 250 mm3 (at day 12, see arrow). […] The vehicle (PBS with 5% DMSO) was injected 3-times a week. Tumor growth was monitored during 16 additional days until tumors control reached a size of 2000 mm3. Thus, all mice were euthanized. Blood was collected from all euthanatized mice and circulating ASAT, ALAT, creatinine, and urea were measured to evaluate the toxicity of the different treatments on the liver and kidneys.

Structures are written as SMILES.

From the text for xenopus embryos: Embryos were left in solution until untreated control embryos reached stage 41.

In the case of `CC[C@H](C)n1cc(C)c2c(C(=O)NCc3c(C)cc(C)[nH]c3=O)cc(-c3ccc(N4CCNCC4)nc3)cc21` [GSK-126, 1-[(2S)-butan-2-yl]-N-[(4,6-dimethyl-2-oxo-1H-pyridin-3-yl)methyl]-3-methyl-6-[6-(1-piperazinyl)-3-pyridinyl]-4-indolecarboxamide], in data set [1] (4 μM), the “effect of low dose on DMG cell growth” value is listed as “does not affect”. Moreover, the IC50 in data set [1] (Homo sapiens, three DMG cell lines, 72 h of treatment, read-out: IC50 (half maximal inhibitory concentration)) is 7.6 to 10.3 µM; in the data set on Huh6 cells [4] (Homo sapiens, HuH-6) it was 6 µM. Further, the “doses with significant growth inhibition” value in data set [1] (NEM157i and SU-DIPG-IVi) was “above 6 μM”. Further, in data set [1] (NEM157i and SU-DIPG-IVi), the “doses with total growth inhibition” value is listed as “above 25 μM”. The tumor cell apoptosis result in data set [2] is reported as “increase in tumor cell apoptosis”. The H3K27me3 trimethylation result in the data set on H3K27me3 trimethylation (BXdmg1 cells, histone-purified protein extracts) is on record as “reduced H3K27me3 trimethylation in a dose-dependent manner”; in the data set on H3K27me3 trimethylation (NEM157i and SU-DIPG-IVi DMG cells), “efficiently inhibited”. Besides, the spheroid formation entry in data set [3] is given as “spheroid formation was affected”. Further, the IC25 dose in the data set with Huh6 cells [4] worked out at 3 µM. The “toxic dose in xenopus embryos” value with xenopus embryos is reported as 1 mM. In the data set with Huh6 and HepG2 cells, the “proliferation and survival of hepatoblastoma cells (clonogenic cell assay)” value is recorded as “little effect”. Further, the “development of hepatoblastoma in mice (tumor volume)” value in the data set on Huh6 cells [5] is recorded as “no effect”.
